What was measured:
[1] = target: T1, recombinant mouse retbindin (mRTBN, RTBDN) (Mus musculus, UniProt Q8QZY4); assay: bio-layer interferometry; assay type: binding; details: PBS
T1 sequence (Q8QZY4 32-247): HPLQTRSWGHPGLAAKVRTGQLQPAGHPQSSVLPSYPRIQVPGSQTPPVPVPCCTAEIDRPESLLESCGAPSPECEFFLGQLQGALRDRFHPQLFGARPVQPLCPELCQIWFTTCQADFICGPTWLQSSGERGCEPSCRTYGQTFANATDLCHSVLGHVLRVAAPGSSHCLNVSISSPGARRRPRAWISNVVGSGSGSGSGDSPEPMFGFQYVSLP

[2] = target: Bovine Interphotoreceptor Retinoid Binding Protein (bIRBP) (Bos taurus, UniProt P12661); assay: bio-layer interferometry; details: PBS; ligand predissolved in DMSO, 1-10 μM
Chain of Bovine Interphotoreceptor Retinoid Binding Protein (bIRBP) (P12661 23-1286): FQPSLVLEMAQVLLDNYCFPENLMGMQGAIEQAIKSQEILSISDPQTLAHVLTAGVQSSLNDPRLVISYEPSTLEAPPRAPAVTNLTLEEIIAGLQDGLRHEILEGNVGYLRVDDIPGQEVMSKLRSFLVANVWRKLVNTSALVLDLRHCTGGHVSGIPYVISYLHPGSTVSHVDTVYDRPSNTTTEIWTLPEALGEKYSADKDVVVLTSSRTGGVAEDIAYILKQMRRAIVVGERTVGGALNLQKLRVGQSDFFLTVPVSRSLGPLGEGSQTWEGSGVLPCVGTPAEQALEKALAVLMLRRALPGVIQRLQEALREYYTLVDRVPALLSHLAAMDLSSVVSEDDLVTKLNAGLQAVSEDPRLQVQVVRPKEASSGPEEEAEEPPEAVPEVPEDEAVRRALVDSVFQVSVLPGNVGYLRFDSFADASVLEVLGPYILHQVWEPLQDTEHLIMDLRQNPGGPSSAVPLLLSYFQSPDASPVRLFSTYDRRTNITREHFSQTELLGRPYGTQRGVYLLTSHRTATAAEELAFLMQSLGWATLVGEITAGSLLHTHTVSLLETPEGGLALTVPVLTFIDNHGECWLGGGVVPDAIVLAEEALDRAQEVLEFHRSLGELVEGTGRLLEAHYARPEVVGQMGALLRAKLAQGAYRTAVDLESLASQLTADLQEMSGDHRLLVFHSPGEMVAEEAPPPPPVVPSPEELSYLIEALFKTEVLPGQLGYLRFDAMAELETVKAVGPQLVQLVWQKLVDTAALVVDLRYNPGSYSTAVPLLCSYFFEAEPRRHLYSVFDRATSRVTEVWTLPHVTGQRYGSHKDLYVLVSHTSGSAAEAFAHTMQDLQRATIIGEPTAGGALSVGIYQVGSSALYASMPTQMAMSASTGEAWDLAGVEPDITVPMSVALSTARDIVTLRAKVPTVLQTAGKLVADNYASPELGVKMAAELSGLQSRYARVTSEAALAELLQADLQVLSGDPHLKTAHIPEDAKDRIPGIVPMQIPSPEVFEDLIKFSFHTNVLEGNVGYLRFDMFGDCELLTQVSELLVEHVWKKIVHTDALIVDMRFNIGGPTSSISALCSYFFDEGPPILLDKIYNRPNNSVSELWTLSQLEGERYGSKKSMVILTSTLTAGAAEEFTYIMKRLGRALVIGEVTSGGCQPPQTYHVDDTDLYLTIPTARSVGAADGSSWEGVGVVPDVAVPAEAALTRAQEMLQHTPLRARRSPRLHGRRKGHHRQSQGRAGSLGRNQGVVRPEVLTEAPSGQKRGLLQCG

Structure (SMILES) | Dissociation constant [1] | Dissociation constant ([1]; 1-100 μM) | further results
CC1=C(/C=C/C(C)=C\C=C\C(C)=C\C=O)C(C)(C)CCC1 [9-cis retinal] | Dissociation constants for retinoids, flavins and fluorescein (as a control) on retbindin | – | –
CC1=C(/C=C/C(C)=C/C=C\C(C)=C\C=O)C(C)(C)CCC1 [11-cis retinal] | – | – | Dissociation constant [2]: very similar to the well characterized 11-cis retinal transport protein IRBP; Dissociation constant ([1]; ligand predissolved in DMSO, 1-10 μM): the protein showed significant affinity for several retinoids, particularly for 11-cis retinal
Cc1cc2nc3c(=O)[nH]c(=O)nc-3n(C[C@H](O)[C@H](O)[C@H](O)CO)c2cc1C [riboflavin] | – | Dissociation constants for retinoids, flavins and fluorescein (as a control) on retbindin | –
CC1=C(/C=C/C(C)=C/C=C\C(C)=C\C(=O)O)C(C)(C)CCC1 [11-cis retinoic acid] | Dissociation constants for retinoids, flavins and fluorescein (as a control) on retbindin | – | –
O=C1OC2(c3ccc(O)cc3Oc3cc(O)ccc32)c2ccccc21 [fluorescein, reference compound] | – | Dissociation constants for retinoids, flavins and fluorescein (as a control) on retbindin | –
CC1=C(/C=C/C(C)=C/C=C/C(C)=C/C=O)C(C)(C)CCC1 [all trans retinal] | Dissociation constants for retinoids, flavins and fluorescein (as a control) on retbindin | – | –
Cc1cc2nc3c(=O)[nH]c(=O)nc-3n(C[C@H](O)[C@H](O)[C@H](O)COP(=O)(O)O)c2cc1C [FMN] | – | Dissociation constants for retinoids, flavins and fluorescein (as a control) on retbindin | –
CC1=C(/C=C/C(C)=C\C=C\C(C)=C\C(=O)O)C(C)(C)CCC1 [9-cis retinoic acid] | Dissociation constants for retinoids, flavins and fluorescein (as a control) on retbindin | – | –

Reference: PMC8595511 (Experimental eye research, 2021)
